One test has as its target T1, ATX activity in plasma (Rattus norvegicus, UniProt Q64610).
T1 construct: from tissue; host or cells: plasma of male Wistar rats after oral dosing
The test is described as follows: Measurement of ATX activity in plasma (ex vivo), rat single administration test. More on the design: species or system male Wistar rat. The procedure:
[Measurement of ATX Activity in Plasma (Ex Vivo)]
A compound administration solution prepared by wet pulverization in a mixer mill (type: MM400) for 10 min and adjusting to a given concentration with 0.5% aqueous carboxymethylcellulose solution was orally administered to male Wistar rat (5-week-old when used) at 5 mL/kg. Blood samples were collected from the cervical vein over time at 8 to 24 hr after administration. The blood was heparin-treated using a micro blood collection tube Capiject (CJ-AL, TERUMO CORPORATION), and the plasma was separated by centrifugation (4° C., 12,000 rpm, for 2 min), and preserved at −80° C. The rats after blood sampling were euthanized by exsanguination from the caudal vena cava under isoflurane inhalation anesthesia. The measurement of ATX activity in plasma was evaluated using the concentration of choline in the plasma, which was liberated from lysophosphatidylcholine (substrate of ATX) by the lysophospholipase D activity of ATX, as an index. An equal amount of 2× assay buffer (200 mM Tris-HCl pH9.0, 10 mM MgCl2, 1 M NaCl, 0.1% Triton X-100) is added to plasma (12 μL) and reacted at 37° C. for 6 hr. The reaction mixture (10 μL) after reaction for 6 hr and 45 μL of reagent R^1 solution (100 mM Tris-HCl pH 8.0, 0.5 mM TOOS, 10 U/mL peroxidase, 0.01% Triton X-100) were added and blended and absorbance at 550-700 nm was measured and used as a prevalue. As the standard, choline chloride was used. 1 mM choline chloride was diluted with 2× assay buffer up to 7 steps in 2-fold serial dilution, R^1 solution was treated similarly and the absorbance was measured. Furthermore, 15 μL of reagent R^2 solution (100 mM Tris-HCl pH 8.0, 1 mM 4-aminoantipyrine, 10 U/mL choline oxidase, 0.01% Triton X-100) was added, and the mixture was reacted at room temperature for 10 min, and absorbance at 550-700 nm was measured. The choline concentration per reaction time was calculated from the difference between the absorbance after R^2 solution addition and prevalue measured before R^2 addition and used as ATX activity value. inhibitory activity (%)=100×{1−[choline concentration (μM) of test substance administration group/choline concentration (μM) of solvent control group]} <calculating formula>

The target in another test is human recombinant ATX (Homo sapiens, UniProt Q13822). The test is described as follows: Enzyme inhibition test (choline release from LPC, Amplex UltraRed fluorescence). In kind it is biochemical. Particulars: 200 μM LPC substrate, 1 hr at room temperature, read-out: Experimental Example 1 human ATX IC50. The procedure:
[Enzyme Inhibition Test Method]
A mixture (10 μL) of substrate and a set of choline quantification reagents (200 μM LPC (1-Oleoyl-sn-glycero-3-phosphocholine Sigma #L1881), 25 μM Amplex UltraRed reagent (Invitrogen), 0.1 U/mL Peroxidase (TOYOBO), 1 U/mL Choline oxidase (TOYOBO)), prepared with assay buffer (50 mM Tris (pH 8.0), 140 mM NaCl, 5 mM KCl, 1 mM CaCl2, 1 mM MgCl2, 0.1% BSA (Albumin from bovine serum, SIGMA), 0.0025% Triton X-100), enzyme (0.4 ng/μL human recombinant ATX) (10 μL), compound-containing solution (100 nL) were dispensed to a 384-well plate, incubated at room temperature for 1 hr and the fluorescence (Ex. 525 nm/Em. 598 nm) was measured. As the standard, choline chloride was used. With a blank free of enzyme was taken as inhibitory rate 100%, and a control free of inhibitor as inhibitory rate 0%, the inhibitory rate was calculated, and IC50 value was calculated from the inhibitory activity percentage at each concentration.

pIC50: −log10 of the molar value.

Experimental findings from patent US11958812B2, “3, 5-disubstituted pyridine and 3, 5-disubstituted pyridazine derivatives and pharmaceutical use of same” (MITSUBISHI TANABE PHARMA CORPORATION, priority 2018, dated 2024) are described below.

As for `COc1ccc(-c2cncc(OCc3ccc(OC(F)(F)F)cc3)c2)cc1[C@@H]1C[C@H]1C(=O)O` (relative stereo) [Example 2, trans-2-[2-methoxy-5-(5-{[4-(trifluoromethoxy)benzyl]oxy}pyridin-3-yl)phenyl]cyclopropanecarboxylic Acid], the “Experimental Example 2 Rat single administration test (inhibitory activity (%) 8 hr after 1 mg/kg oral administration)” value on ATX activity in plasma was found to be 72%. Further, the negative logarithm of the IC50 (pIC50) at human recombinant ATX was 8.05.
`O=C(O)c1cccc(C2CN(c3cncc(OC[C@H]4CC[C@H](C(F)(F)F)CC4)c3)CCO2)c1` (relative stereo) [Example 13, 3-[4-(5-{[trans-4-(trifluoromethyl)cyclohexyl]methoxy}pyridin-3-yl)morpholin-2-yl]benzoic Acid]: at ATX activity in plasma, the “Experimental Example 2 Rat single administration test (inhibitory activity (%) 8 hr after 1 mg/kg oral administration)” value turned out to be 71%. Further, the pIC50 at human recombinant ATX is 8.52.
Regarding `COc1ccc(-c2cnnc(OC[C@H]3CC[C@H](C(F)(F)F)CC3)c2)cc1[C@H]1C[C@@H]1C(=O)O` [Example 1-1, (1S,2S)-2-[2-methoxy-5-(6-{[trans-4-(trifluoromethyl)cyclohexyl]methoxy}pyridazin-4-yl)phenyl]cyclopropanecarboxylic Acid], the “Experimental Example 2 Rat single administration test (inhibitory activity (%) 8 hr after 1 mg/kg oral administration)” value at ATX activity in plasma stood at 94%. Further, the negative logarithm of the IC50 (pIC50) at human recombinant ATX was 9.00.
On to `COc1ccc(-c2cnnc(OC[C@H]3CC[C@H](C(F)(F)F)CC3)c2)cc1[C@@H]1C[C@H]1C(=O)O` [Example 1-2, (1R,2R)-2-[2-methoxy-5-(6-{[trans-4-(trifluoromethyl)cyclohexyl]methoxy}pyridazin-4-yl)phenyl]cyclopropanecarboxylic Acid], for which, on ATX activity in plasma, the “Experimental Example 2 Rat single administration test (inhibitory activity (%) 8 hr after 1 mg/kg oral administration)” value is on record as 93%. At human recombinant ATX, the pIC50 is 8.30.
On to `COc1ccc(-c2cncc(CCc3ccc(OC(F)(F)F)cc3)c2)nc1[C@H]1C[C@@H]1C(=O)O` [Example 6, (1S,2S)-2-(5-methoxy-5′-{2-[4-(trifluoromethoxy)phenyl]ethyl}-2,3′-bipyridin-6-yl)cyclopropanecarboxylic Acid], for which the “Experimental Example 2 Rat single administration test (inhibitory activity (%) 8 hr after 1 mg/kg oral administration)” value on ATX activity in plasma turned out to be 71%. Moreover, on human recombinant ATX, the pIC50 was 8.40.
Take `O=C(O)[C@H]1C[C@@H]1c1cccc(-c2cncc(OC[C@H]3CC[C@H](C(F)(F)F)CC3)c2)n1` [Example 8-1, (1S,2S)-2-(5′-{[trans-4-(trifluoromethyl)cyclohexyl]methoxy}-2,3′-bipyridin-6-yl)cyclopropanecarboxylic Acid]: the “Experimental Example 2 Rat single administration test (inhibitory activity (%) 8 hr after 1 mg/kg oral administration)” value on ATX activity in plasma was determined as 92%. Moreover, on human recombinant ATX, the negative-log IC50 (pIC50) was 8.70.
For `O=C(O)[C@@H]1C[C@H]1c1cccc(-c2cncc(OC[C@H]3CC[C@H](C(F)(F)F)CC3)c2)n1` [Example 8-2, (1R,2R)-2-(5′-{[trans-4-(trifluoromethyl)cyclohexyl]methoxy}-2,3′-bipyridin-6-yl)cyclopropanecarboxylic Acid], on ATX activity in plasma, the “Experimental Example 2 Rat single administration test (inhibitory activity (%) 8 hr after 1 mg/kg oral administration)” value amounted to 47%. For the same compound, the pIC50 on human recombinant ATX was 7.70.
With `O=C(O)[C@H]1C[C@@H]1c1cc(-c2cncc(OC[C@H]3CC[C@H](C(F)(F)F)CC3)c2)ccn1` [Example 9-1, (1S,2S)-2-(5-{[trans-4-(trifluoromethyl)cyclohexyl]methoxy}-3,4′-bipyridin-2′-yl)cyclopropanecarboxylic Acid], on ATX activity in plasma, the “Experimental Example 2 Rat single administration test (inhibitory activity (%) 8 hr after 1 mg/kg oral administration)” value was 94%. At human recombinant ATX, the pIC50 is 8.70.
Taken in the same sequence, the figures for `O=C(O)[C@@H]1C[C@H]1c1cc(-c2cncc(OC[C@H]3CC[C@H](C(F)(F)F)CC3)c2)ccn1` [Example 9-2, (1R,2R)-2-(5-{[trans-4-(trifluoromethyl)cyclohexyl]methoxy}-3,4′-bipyridin-2′-yl)cyclopropanecarboxylic Acid] were 94% and 8.52.
On to `Cc1cc(C2CN(c3cncc(OCc4ccc(OC(F)(F)F)cc4)c3)CCO2)cnc1C(=O)O` (stereo not drawn) [Example 66], for which the negative logarithm of the IC50 (pIC50) on human recombinant ATX was 8.30.
For `O=C(O)c1cccc(C2CCN(c3cncc(OCc4ccc(OC(F)(F)F)cc4)c3)C2)c1` (stereo not drawn) [Example 67], on human recombinant ATX, the pIC50 is 7.89.
As to `O=C(O)c1ccc(C2CCCN2c2cncc(OCc3ccc(OC(F)(F)F)cc3)c2)cc1` (stereo not drawn) [Example 68], at human recombinant ATX, the pIC50 is 7.85.
On the same count and under the same terms, the same measure for `O=C(O)CC[C@@H]1CN(c2cncc(OCc3ccc(OC(F)(F)F)cc3)c2)CCO1` [Example 69]: 6.82; for `O=C(O)CC[C@H]1CN(c2cncc(OCC3CCN(CC(F)(F)F)CC3)c2)CCO1` [Example 70]: 6.87; for `O=C(O)CC[C@H]1CN(c2cncc(OCC3CCCCC3)c2)CCO1` [Example 71]: 6.98.
With `O=C(O)CC[C@H]1CN(c2cncc(OCC3CCC4(CCC4)CC3)c2)CCO1` [Example 72], the negative-log IC50 (pIC50) at human recombinant ATX was 8.10.
In the case of `O=C(O)CC[C@H]1CN(c2cncc(OCC3CCC4(CC3)CC4)c2)CCO1` [Example 73], the pIC50 at human recombinant ATX was 8.05.
In the case of `CC1(C)CCC(COc2cncc(N3CCO[C@@H](CCC(=O)O)C3)c2)CC1` [Example 74], the negative logarithm of the IC50 (pIC50) on human recombinant ATX is 8.00.
For the compound `O=C(O)CC[C@H]1CN(c2cncc(OCC3CCC(F)(F)CC3)c2)CCO1` [Example 75], the pIC50 at human recombinant ATX is 7.17.
On to `O=C(O)CC[C@H]1CN(c2cncc(OC[C@H]3CC[C@@H](C(F)(F)F)CC3)c2)CCO1` [Example 76], for which the negative-log IC50 (pIC50) on human recombinant ATX is 7.11.
The same measure, in the same setting: the value for `O=C(O)CC[C@H]1CN(c2cncc(OCc3ccc(F)cc3)c2)CCO1` [Example 77] was 6.42; that for `O=C(O)CC[C@H]1CN(c2cncc(OCc3ccc(Cl)cc3)c2)CCO1` [Example 78] was 7.04; that for `O=C(O)CC[C@H]1CN(c2cncc(OCc3cccc(Cl)c3)c2)CCO1` [Example 79] was 6.72.
As to `O=C(O)CC[C@H]1CN(c2cncc(OCc3ccccc3Cl)c2)CCO1` [Example 80], on human recombinant ATX, the negative logarithm of the IC50 (pIC50) is 6.31.
As for `O=C(O)CC[C@H]1CN(c2cncc(OCc3ccc(SC(F)(F)F)cc3)c2)CCO1` [Example 81], the pIC50 on human recombinant ATX is 7.92.
Still for that read-out and setting: the value for `O=C(O)CC[C@H]1CN(c2cncc(OCc3ccc(OC(F)(F)F)c(Cl)c3)c2)CCO1` [Example 85] was 7.54.
With `O=C(O)CC[C@H]1CN(c2cncc(COc3ccc(C(F)(F)F)cc3)c2)CCO1` [Example 86], the pIC50 on human recombinant ATX is 6.89.
As for `C[C@H]1CN(c2cncc(OCc3ccc(OC(F)(F)F)cc3)c2)C[C@H](CCC(=O)O)O1` [Example 88], the pIC50 at human recombinant ATX is 6.88.
Turning to `CC1(C(=O)O)CC1[C@H]1CN(c2cnnc(OC[C@H]3CC[C@H](C(F)(F)F)CC3)c2)CCO1` (stereo partly drawn) [Example 89], the pIC50 on human recombinant ATX was 8.05.
Consider `O=C(O)C1CN(c2cncc(OCc3ccc(OC(F)(F)F)cc3)c2)CCO1` (stereo not drawn) [Example 90], for which the pIC50 at human recombinant ATX was 6.38.
Turning to `O=C(O)CCC1CCCN(c2cncc(OCc3ccc(OC(F)(F)F)cc3)c2)C1` (stereo not drawn) [Example 91], at human recombinant ATX, the negative-log IC50 (pIC50) is 7.62.
Still for that read-out and setting: the same measure for `O=C(O)CCCC1CN(c2cncc(OCc3ccc(OC(F)(F)F)cc3)c2)CCO1` (stereo not drawn) [Example 94]: 7.49.
On to `O=C(O)CCCC1COCCN1c1cncc(OCc2ccc(OC(F)(F)F)cc2)c1` (stereo not drawn) [Example 95], for which the negative-log IC50 (pIC50) at human recombinant ATX was 7.44.
The same measure, in the same setting: the same measure for `O=C(O)COC[C@@H]1CCCN1c1cncc(OCc2ccc(OC(F)(F)F)cc2)c1` [Example 96]: 7.72.
Same read-out and setting: the same measure for `O=C(O)CC1CCN(c2cncc(OCc3ccc(OC(F)(F)F)cc3)c2)C1` (stereo not drawn) [Example 97]: 6.42; for `O=C(O)CCC1CCN(c2cncc(OCc3ccc(OC(F)(F)F)cc3)c2)C1` (stereo not drawn) [Example 98]: 6.92; for `O=C(O)CCCC1CCN(c2cncc(OCc3ccc(OC(F)(F)F)cc3)c2)C1` (stereo not drawn) [Example 99]: 7.30.
Turning to `O=C(O)CCC1CCCN1c1cncc(OCc2ccc(OC(F)(F)F)cc2)c1` (stereo not drawn) [Example 100], the pIC50 on human recombinant ATX was 6.69.
Still for that read-out and setting: the value for `O=C(O)/C=C/C1CCCN1c1cncc(OCc2ccc(OC(F)(F)F)cc2)c1` (stereo not drawn) [Example 101] was 6.95.

A word on the pIC50: it is the IC50 on a negative log10 scale, so that one unit is a factor of ten.
